From ChEMBL document CHEMBL3885881, “DrugMatrix”

Organism: Rattus norvegicus
Assay: DrugMatrix - Regimen: Daily Repeat
Format: toxicity, organism-based, Sprague-Dawley
Set-up: regimen Daily Repeat, gender Male, age 6-8 weeks
Conditions: in vivo, po, route oral GAVAGE, […]; for ABSOLUTE BASOPHIL / ABSOLUTE EOSINOPHIL / ABSOLUTE LYMPHOCYTE / ABSOLUTE MONOCYTE / ABSOLUTE SEGMENTED NEUTROPHIL / BASOPHIL / EOSINOPHIL / ERYTHROCYTE COUNT / HEMATOCRIT / HEMOGLOBIN / LEUKOCYTE COUNT / LYMPHOCYTE / MEAN CORPUSCULAR HEMOGLOBIN / MEAN CORPUSCULAR HEMOGLOBIN CONCENTRATION / MEAN CORPUSCULAR VOLUME / MONOCYTE / NEUTROPHIL / NUCLEATED RED BLOOD CELLS / PLATELET COUNT: tissue Blood; for ALANINE AMINOTRANSFERASE / ALBUMIN / ALKALINE PHOSPHATASE / ASPARTATE AMINOTRANSFERASE / BLOOD UREA NITROGEN / CARBON DIOXIDE / CHLORIDE / CHOLESTEROL / CREATINE PHOSPHOKINASE / CREATININE / GLUCOSE / LACTATE DEHYDROGENASE / LIPASE / PHOSPHORUS / POTASSIUM / SODIUM / TOTAL BILIRUBIN / TOTAL PROTEIN / URIC ACID: tissue Plasma
[1] = 0 mg/kg, 72 h, dose level Control, time 3 day
[2] = 0 mg/kg, 120 h, dose level Control, time 5 day
[3] = 30 mg/kg, 72 h, dose level Low, time 3 day
[4] = 30 mg/kg, 120 h, dose level Low, time 5 day

With COc1ccc2[nH]c([S+]([O-])Cc3ncc(C)c(OC)c3C)nc2c1 (configuration not stated) [OMEPRAZOLE] the “ABSOLUTE BASOPHIL” value [1] was 0 CELLS/uL, the “ABSOLUTE EOSINOPHIL” value [1] was 70.67 CELLS/uL and the “ABSOLUTE LYMPHOCYTE” value [1] was 12761.5 CELLS/uL. The “ABSOLUTE MONOCYTE” value [1] was 214.17 CELLS/uL, the “ABSOLUTE SEGMENTED NEUTROPHIL” value [1] was 987 CELLS/uL and the BASOPHIL [1] was 0%. The EOSINOPHIL [1] was 0.5%, the “ERYTHROCYTE COUNT” value [1] was 5.61 x10E6/uL and the HEMATOCRIT [1] was 35.22%. For the same compound, the HEMOGLOBIN [1] was 13.57 G/DL, the “LEUKOCYTE COUNT” value [1] was 14.03 x10E3/uL and the LYMPHOCYTE [1] was 91%. For the same compound, the “MEAN CORPUSCULAR HEMOGLOBIN” value [1] was 24.25 pg, the “MEAN CORPUSCULAR HEMOGLOBIN CONCENTRATION” value [1] was 38.52 G/DL and the “MEAN CORPUSCULAR VOLUME” value [1] was 62.9 fL. For the same compound, the MONOCYTE [1] was 1.5%, the NEUTROPHIL [1] was 7% and the “NUCLEATED RED BLOOD CELLS” value [1] was 0 /100WBC. For the same compound, the “PLATELET COUNT” value [1] was 997.5 x10E3/uL, the “ALANINE AMINOTRANSFERASE” value [1] was 66.5 u/L and the ALBUMIN [1] was 3.98 G/DL. For the same compound, the “ALKALINE PHOSPHATASE” value [1] was 350 u/L, the “ASPARTATE AMINOTRANSFERASE” value [1] was 83.83 u/L and the “BLOOD UREA NITROGEN” value [1] was 12.33 mg/dL. For the same compound, the “CARBON DIOXIDE” value [1] was 30.33 mmol/L, the CHLORIDE [1] was 100 MEQ/L and the CHOLESTEROL [1] was 75 mg/dL. For the same compound, the “CREATINE PHOSPHOKINASE” value [1] was 200 u/L, the CREATININE [1] was 0.17 mg/dL and the GLUCOSE [1] was 170 mg/dL. The “LACTATE DEHYDROGENASE” value [1] was 89.33 u/L, the LIPASE [1] was 10.33 u/L and the PHOSPHORUS [1] was 10.88 mg/dL. The POTASSIUM [1] was 6.13 MEQ/L, the SODIUM [1] was 140.53 MEQ/L and the “TOTAL BILIRUBIN” value [1] was 0.2 mg/dL. For the same compound, the “TOTAL PROTEIN” value [1] was 5.67 G/DL, the “URIC ACID” value [1] was 1.6 mg/dL and the “ABSOLUTE BASOPHIL” value [2] was 0 CELLS/uL. The “ABSOLUTE EOSINOPHIL” value [2] was 0 CELLS/uL, the “ABSOLUTE LYMPHOCYTE” value [2] was 9526.67 CELLS/uL and the “ABSOLUTE MONOCYTE” value [2] was 134.17 CELLS/uL. The “ABSOLUTE SEGMENTED NEUTROPHIL” value [2] was 922.5 CELLS/uL, the BASOPHIL [2] was 0% and the EOSINOPHIL [2] was 0%. For the same compound, the “ERYTHROCYTE COUNT” value [2] was 5.58 x10E6/uL, the HEMATOCRIT [2] was 34.78% and the HEMOGLOBIN [2] was 13.5 G/DL. For the same compound, the “LEUKOCYTE COUNT” value [2] was 10.58 x10E3/uL, the LYMPHOCYTE [2] was 90.17% and the “MEAN CORPUSCULAR HEMOGLOBIN” value [2] was 24.27 pg. The “MEAN CORPUSCULAR HEMOGLOBIN CONCENTRATION” value [2] was 38.82 G/DL, the “MEAN CORPUSCULAR VOLUME” value [2] was 62.48 fL and the MONOCYTE [2] was 1.17%. For the same compound, the NEUTROPHIL [2] was 8.67%, the “NUCLEATED RED BLOOD CELLS” value [2] was 0.17 /100WBC and the “PLATELET COUNT” value [2] was 807.17 x10E3/uL. For the same compound, the “ALANINE AMINOTRANSFERASE” value [2] was 66.83 u/L, the ALBUMIN [2] was 3.73 G/DL and the “ALKALINE PHOSPHATASE” value [2] was 286.17 u/L. The “ASPARTATE AMINOTRANSFERASE” value [2] was 142.33 u/L, the “BLOOD UREA NITROGEN” value [2] was 14.67 mg/dL and the “CARBON DIOXIDE” value [2] was 25.5 mmol/L. For the same compound, the CHLORIDE [2] was 89.17 MEQ/L, the CHOLESTEROL [2] was 75.17 mg/dL and the “CREATINE PHOSPHOKINASE” value [2] was 310.67 u/L. The CREATININE [2] was 0.2 mg/dL, the GLUCOSE [2] was 153 mg/dL and the “LACTATE DEHYDROGENASE” value [2] was 1594 u/L. It also gave an LIPASE [2] of 14.83 u/L, a PHOSPHORUS [2] of 11.28 mg/dL and a POTASSIUM [2] of 8.46 MEQ/L. The SODIUM [2] was 126.88 MEQ/L, the “TOTAL BILIRUBIN” value [2] was 0.37 mg/dL and the “TOTAL PROTEIN” value [2] was 5.53 G/DL. For the same compound, the “URIC ACID” value [2] was 1.52 mg/dL, the “ABSOLUTE BASOPHIL” value [3] was 0 CELLS/uL and the “ABSOLUTE EOSINOPHIL” value [3] was 80 CELLS/uL. The “ABSOLUTE LYMPHOCYTE” value [3] was 11444.67 CELLS/uL, the “ABSOLUTE MONOCYTE” value [3] was 85.33 CELLS/uL and the “ABSOLUTE SEGMENTED NEUTROPHIL” value [3] was 690 CELLS/uL. For the same compound, the BASOPHIL [3] was 0%, the EOSINOPHIL [3] was 0.67% and the “ERYTHROCYTE COUNT” value [3] was 5.41 x10E6/uL. The HEMATOCRIT [3] was 34.37%, the HEMOGLOBIN [3] was 13.77 G/DL and the “LEUKOCYTE COUNT” value [3] was 12.3 x10E3/uL. For the same compound, the LYMPHOCYTE [3] was 93%, the “MEAN CORPUSCULAR HEMOGLOBIN” value [3] was 25.47 pg and the “MEAN CORPUSCULAR HEMOGLOBIN CONCENTRATION” value [3] was 40.07 G/DL. The “MEAN CORPUSCULAR VOLUME” value [3] was 63.53 fL, the MONOCYTE [3] was 0.67% and the NEUTROPHIL [3] was 5.67%. For the same compound, the “NUCLEATED RED BLOOD CELLS” value [3] was 0.67 /100WBC, the “PLATELET COUNT” value [3] was 1225.33 x10E3/uL and the “ALANINE AMINOTRANSFERASE” value [3] was 59.67 u/L. For the same compound, the ALBUMIN [3] was 4.03 G/DL, the “ALKALINE PHOSPHATASE” value [3] was 348.67 u/L and the “ASPARTATE AMINOTRANSFERASE” value [3] was 77.33 u/L. For the same compound, the “BLOOD UREA NITROGEN” value [3] was 12 mg/dL, the “CARBON DIOXIDE” value [3] was 29.33 mmol/L and the CHLORIDE [3] was 101 MEQ/L. The CHOLESTEROL [3] was 72.33 mg/dL, the “CREATINE PHOSPHOKINASE” value [3] was 303.67 u/L and the CREATININE [3] was 0.14 mg/dL. For the same compound, the GLUCOSE [3] was 175.33 mg/dL, the “LACTATE DEHYDROGENASE” value [3] was 111 u/L and the LIPASE [3] was 10.33 u/L. It also gave a PHOSPHORUS [3] of 12.23 mg/dL, a POTASSIUM [3] of 6.24 MEQ/L and an SODIUM [3] of 143.63 MEQ/L. For the same compound, the “TOTAL BILIRUBIN” value [3] was 0.17 mg/dL, the “TOTAL PROTEIN” value [3] was 5.8 G/DL and the “URIC ACID” value [3] was 1.57 mg/dL. For the same compound, the “ABSOLUTE BASOPHIL” value [4] was 0 CELLS/uL, the “ABSOLUTE EOSINOPHIL” value [4] was 0 CELLS/uL and the “ABSOLUTE LYMPHOCYTE” value [4] was 8312.33 CELLS/uL. For the same compound, the “ABSOLUTE MONOCYTE” value [4] was 87.33 CELLS/uL, the “ABSOLUTE SEGMENTED NEUTROPHIL” value [4] was 233.67 CELLS/uL and the BASOPHIL [4] was 0%. For the same compound, the EOSINOPHIL [4] was 0%, the “ERYTHROCYTE COUNT” value [4] was 6.01 x10E6/uL and the HEMATOCRIT [4] was 36%. For the same compound, the HEMOGLOBIN [4] was 13.93 G/DL, the “LEUKOCYTE COUNT” value [4] was 8.63 x10E3/uL and the LYMPHOCYTE [4] was 96.33%. For the same compound, the “MEAN CORPUSCULAR HEMOGLOBIN” value [4] was 23.2 pg, the “MEAN CORPUSCULAR HEMOGLOBIN CONCENTRATION” value [4] was 38.73 G/DL and the “MEAN CORPUSCULAR VOLUME” value [4] was 59.9 fL. The MONOCYTE [4] was 1%, the NEUTROPHIL [4] was 2.67% and the “NUCLEATED RED BLOOD CELLS” value [4] was 0 /100WBC. For the same compound, the “PLATELET COUNT” value [4] was 1213.33 x10E3/uL, the “ALANINE AMINOTRANSFERASE” value [4] was 65 u/L and the ALBUMIN [4] was 4.2 G/DL. The “ALKALINE PHOSPHATASE” value [4] was 440.33 u/L, the “ASPARTATE AMINOTRANSFERASE” value [4] was 88.67 u/L and the “BLOOD UREA NITROGEN” value [4] was 14 mg/dL. For the same compound, the “CARBON DIOXIDE” value [4] was 30 mmol/L, the CHLORIDE [4] was 98.67 MEQ/L and the CHOLESTEROL [4] was 69 mg/dL. The “CREATINE PHOSPHOKINASE” value [4] was 217.67 u/L, the CREATININE [4] was 0.27 mg/dL and the GLUCOSE [4] was 163.33 mg/dL. For the same compound, the “LACTATE DEHYDROGENASE” value [4] was 152.67 u/L, the LIPASE [4] was 11.67 u/L and the PHOSPHORUS [4] was 11.43 mg/dL. For the same compound, the POTASSIUM [4] was 5.8 MEQ/L, the SODIUM [4] was 144.67 MEQ/L and the “TOTAL BILIRUBIN” value [4] was 0.17 mg/dL. For the same compound, the “TOTAL PROTEIN” value [4] was 6.1 G/DL and the “URIC ACID” value [4] was 1 mg/dL.
